Data reported in US9878046B2, “Adverse side-effects associated with administration of an anti-hyaluronan agent and methods for ameliorating or preventing the side-effects” (Halozyme, Inc., priority 2010, dated 2018).

Assays:
[1] = test system: BxPC3 pancreatic cancer cell line; assay: Antitumor activity in BxPC3 pancreatic cancer xenograft model; format: in vivo, human (xenograft in athymic female nude mice)
Method: Tumor cells from the BxPC3 pancreatic cancer cell line were grown to approximately 80% confluency, trypsinized, collected, washed once in HBSS (Hank's balance salt solution, Mediatech Inc.), and re-suspended in 50% Matrigel in HBSS at 2×10^7 cells/mL on ice before inoculation into animals. Athymic female nude mice (average weight ˜20 g) were inoculated intramuscularly (IM) with 0.05 mL of cell suspension, peritibially, in the left hind leg (adjacent to the tibia periosteum). The tumors in the animals were assessed twice a week and allowed to grow to a mean tumor volume of approximately 250 mm^3 (Day −1; Table 13). Actual tumor volumes were determined using VisualSonics Vevo 770 high-resolution ultrasound.
The animals were randomly grouped into 6 groups of 8 animals per group (6+2 satellite mice) and treated with vehicle (API buffer), PEGPH20 (157,500 Units/kg, 4.5 mg/kg), low dose dexamethasone (1.25 mg/kg), high dose dexamethasone (5 mg/kg), PEGPH20 (4.5 mg/kg)+low dose dexamethasone (1.25 mg/kg) and PEGPH20 (4.5 mg/kg)+high dose dexamethasone (5 mg/kg). The dose and frequency of the PEGPH20 (or vehicle) intravenous injections was 157,500 Units/kg or approximately 4.5 mg/kg, on Days 0, 3, 7, 10, 13 and 17 for a total of 6 injections starting on Day 0 (dose volume of 0.1 mL). The doses and frequency of the dexamethasone intraperitonal injections was 1.25 mg/kg at the low dose and 5 mg/kg at the high dose, once a day until Day 17 (QDx17) with a dose volume of 0.1 mL.
The tumor volumes of all mice were measured pre-treatment on Days −4 and −1 (mean tumor volume of ˜250 mm^3) and on Days 4, 7, 11, 14 and 17 by capturing images using the VisualSonic ultrasound system and using an ultrasound imaging software program to calculate the tumor volume (Table 13). The percent tumor growth inhibition (% TGI) was calculated as described above in Example 9A.

[2] = test system: PC3 prostate carcinoma cell line; assay: Antitumor activity in PC3 prostate cancer xenograft model; format: in vivo, human (xenograft in athymic male nude mice)
Method: Tumor cells from the PC3 prostate carcinoma cell line were grown to approximately 80% confluency then trypsinized, collected, washed once in HBSS (Hank's balance salt solution, Mediatech Inc.), then re-suspended in 50% Matrigel® in HBSS at 2×10^7 cells/mL on ice before inoculation into animals. Athymic male nude mice (Nu/Nu (Ncr); Taconic Farms; average weight ˜20 g) were inoculated intramuscularly (IM) with 0.05 mL of this cell suspension, peritibially, in the left hind leg (adjacent to the tibia periosteum). The implants in the animals were assessed twice a week and allowed to grow to a mean tumor volume of approximately 500 mm^3 (Day −2; Table 12). Actual tumor volumes were determined using VisualSonics Vevo 770 high-resolution ultrasound, using two perpendicular axial dimensions.
Animals were sorted randomly and grouped into 6 groups of 8 mice per group (6+2 satellite mice). Treatment groups were vehicle (API buffer), PEGPH20 (157,500 Units/kg, 4.5 mg/kg), low dose dexamethasone (1.25 mg/kg), high dose dexamethasone (5 mg/kg), PEGPH20 (4.5 mg/kg)+low dose dexamethasone (1.25 mg/kg) and PEGPH20 (4.5 mg/kg)+high dose dexamethasone (5 mg/kg). The dose and frequency of the PEGPH20 (or vehicle) intravenous injections was 157,500 Units/kg or approximately 4.5 mg/kg, every 3rd day starting on Day 0 (Days 0, 3, 6, 9, 12) with a total of 5 injections (Q3Dx5) with a dose volume of 0.1 mL. This dosing and frequency regimen was previously shown to inhibit xenograft tumor growth by 34-70%. The doses and frequency of the dexamethasone intraperitonal injections were 1.25 mg/kg at the low dose and 5 mg/kg at the high dose, once a day until Day 13 (QDx13) with a dose volume of 0.1 mL.
The tumor volumes of all mice were measured pre-treatment on Day −2 (average tumor volume of ˜500 mm^3) and on Day 1, 6, 9, 13, 16 and 20 by capturing images using the VisualSonic ultrasound system and using an ultrasound imaging software program to calculate tumor volume (Table 12).

Q: Which results are given for `C[C@@H]1C[C@H]2[C@@H]3CCC4=CC(=O)C=C[C@]4(C)[C@@]3(F)[C@@H](O)C[C@]2(C)[C@@]1(O)C(=O)CO` [Dexamethasone]?
A: Tumor volume ([1]; Day 4, PEGPH20 4.5 mg/kg IV x6 and/or dexamethasone 1.25 mg/kg IP QDx17): 463.51 mm^3; Tumor volume ([1]; Day 4, dexamethasone 5 mg/kg IP QDx17, alone or + PEGPH20 4.5 mg/kg IV x6): 396.26 mm^3; Tumor volume ([1]; Day 7, PEGPH20 4.5 mg/kg IV x6 and/or dexamethasone 1.25 mg/kg IP QDx17): 609.40 mm^3; Tumor volume ([1]; Day 7, dexamethasone 5 mg/kg IP QDx17, alone or + PEGPH20 4.5 mg/kg IV x6): 379.39 mm^3; % TGI (% Tumor Growth Inhibition) ([1]; Day 7, dexamethasone 5 mg/kg alone or + PEGPH20 4.5 mg/kg): 53%; Tumor volume ([1]; Day 11, PEGPH20 4.5 mg/kg IV x6 and/or dexamethasone 1.25 mg/kg IP QDx17): 732.92 mm^3; Tumor volume ([1]; Day 11, dexamethasone 5 mg/kg IP QDx17, alone or + PEGPH20 4.5 mg/kg IV x6): 481.54 mm^3; % TGI (% Tumor Growth Inhibition) ([1]; Day 11, dexamethasone 5 mg/kg alone or + PEGPH20 4.5 mg/kg): 49%; Tumor volume ([1]; Day 14, PEGPH20 4.5 mg/kg IV x6 and/or dexamethasone 1.25 mg/kg IP QDx17): 796.84 mm^3; Tumor volume ([1]; Day 14, dexamethasone 5 mg/kg IP QDx17, alone or + PEGPH20 4.5 mg/kg IV x6): 603.82 mm^3; % TGI (% Tumor Growth Inhibition) ([1]; Day 14, dexamethasone 5 mg/kg alone or + PEGPH20 4.5 mg/kg): 46%; Tumor volume ([1]; Day 17, PEGPH20 4.5 mg/kg IV x6 and/or dexamethasone 1.25 mg/kg IP QDx17): 933.86 mm^3; Tumor volume ([1]; Day 17, dexamethasone 5 mg/kg IP QDx17, alone or + PEGPH20 4.5 mg/kg IV x6): 720.95 mm^3; % TGI (% Tumor Growth Inhibition) ([1]; Day 17, dexamethasone 5 mg/kg alone or + PEGPH20 4.5 mg/kg): 50%; Tumor volume ([1]; Day −1 (pre-treatment), PEGPH20 4.5 mg/kg IV x6 and/or dexamethasone 1.25 mg/kg IP QDx17): 312.65 mm^3; Tumor volume ([1]; Day −1 (pre-treatment), dexamethasone 5 mg/kg IP QDx17, alone or + PEGPH20 4.5 mg/kg IV x6): 231.18 mm^3; Tumor volume ([1]; Day −4 (pre-treatment), PEGPH20 4.5 mg/kg IV x6 and/or dexamethasone 1.25 mg/kg IP QDx17): 202.85 mm^3; Tumor volume ([1]; Day −4 (pre-treatment), dexamethasone 5 mg/kg IP QDx17, alone or + PEGPH20 4.5 mg/kg IV x6): 197.29 mm^3; Tumor volume ([2]; Day 1, PEGPH20 4.5 mg/kg IV Q3Dx5 and/or dexamethasone 1.25 mg/kg IP QDx13): 636.98 mm^3; Tumor volume ([2]; Day 1, dexamethasone 5 mg/kg IP QDx13, alone or + PEGPH20 4.5 mg/kg IV Q3Dx5): 633.84 mm^3; Tumor volume ([2]; Day 6, PEGPH20 4.5 mg/kg IV Q3Dx5 and/or dexamethasone 1.25 mg/kg IP QDx13): 727.80 mm^3; Tumor volume ([2]; Day 6, dexamethasone 5 mg/kg IP QDx13, alone or + PEGPH20 4.5 mg/kg IV Q3Dx5): 854.90 mm^3; Tumor volume ([2]; Day 9, PEGPH20 4.5 mg/kg IV Q3Dx5 and/or dexamethasone 1.25 mg/kg IP QDx13): 964.35 mm^3; Tumor volume ([2]; Day 9, dexamethasone 5 mg/kg IP QDx13, alone or + PEGPH20 4.5 mg/kg IV Q3Dx5): 995.47 mm^3; Tumor volume ([2]; Day 13, PEGPH20 4.5 mg/kg IV Q3Dx5 and/or dexamethasone 1.25 mg/kg IP QDx13): 1202.35 mm^3; Tumor volume ([2]; Day 13, dexamethasone 5 mg/kg IP QDx13, alone or + PEGPH20 4.5 mg/kg IV Q3Dx5): 1211.50 mm^3; Tumor volume ([2]; Day 16, PEGPH20 4.5 mg/kg IV Q3Dx5 and/or dexamethasone 1.25 mg/kg IP QDx13): 1401.91 mm^3; Tumor volume ([2]; Day 16, dexamethasone 5 mg/kg IP QDx13, alone or + PEGPH20 4.5 mg/kg IV Q3Dx5): 1455.27 mm^3; Tumor volume ([2]; Day 20, PEGPH20 4.5 mg/kg IV Q3Dx5 and/or dexamethasone 1.25 mg/kg IP QDx13): 1792.92 mm^3; Tumor volume ([2]; Day 20, dexamethasone 5 mg/kg IP QDx13, alone or + PEGPH20 4.5 mg/kg IV Q3Dx5): 1840.11 mm^3; Tumor volume ([2]; Day −2 (pre-treatment), PEGPH20 4.5 mg/kg IV Q3Dx5 and/or dexamethasone 1.25 mg/kg IP QDx13): 486.88 mm^3; Tumor volume ([2]; Day −2 (pre-treatment), dexamethasone 5 mg/kg IP QDx13, alone or + PEGPH20 4.5 mg/kg IV Q3Dx5): 516.25 mm^3
